Results: patent publication US20130296239A1, “Material for Wound Healing and Skin Reconstruction” (3-D Matrix, Ltd., priority 2007, published 2013)
“And” between values parts separate entries of the source, which are not always exact repeats. Equal values may be shown once.

Assays:
[1] = system: wound area of skin wound model mice; assay: Histopathological observation of wound area on Day 28; type: in vivo, nude mice; set-up: key to Vascularization: 0: Decreased vascularity compared to normal dermis.; 1: Dermal vascularity within normal limits.; 2: Minimally increased prominence of dermal or wound capillaries.; 3: Mild increase in prominence of dermal or wound capillaries.; 4: Moderate increase in prominence of dermal or wound capillaries; key to Collagen quality: 0: Lack of fibroplasia and/or collagen in wound.; 1: Minimal to mild fibroplasia in the granulation tissue of the wound.; 2: Moderate fibroplasia and collagen throughout the wound.; 3: Superficial portion of the wound has dense collagen similar to normal dermal collagen.; 4: Dense collagen throughout the wound; key to Inflammation: 0: No increase in inflammatory cells (within normal limits for dermis of nude mice).; 1: Minimal increase in inflammatory cells.; 2: Mild increase in inflammatory cells.; 3: Moderate increase in inflammatory cells.; 4: Marked increase in inflammatory cells; key to Epithelization: 0: No re-epithelization.; 1: Partial re-epithelization. (Wound surface is not completely covered by epithelial cells.); 2: Re-epithelization across the full surface of the wound, but the epithelium is not a stratified squamous epithelium with multiple strata; 3: Re-epithelization across the full surface of the wound with a stratified squamous epithelium and keratinization, but there is evidence of active remodeling; 4: Complete re-epithelization with a keratinized stratified squamous epithelium with remodeling and organization within normal limits
Description: In order to evaluate parameters of wound healing in the skin of nude mice from three groups, histopathological examination was carried out.
After the observation on Day 28, each mouse was sacrificed and a paraffin block containing the wound area, through the center of each wound perpendicular to the apparent longest axis was produced. A hematoxylin and eosin-stained and a trichrome-stained histologic sections were prepared from each block. Using the H&E-stained section, the epithelization, vascularization, and inflammation associated with the wound were ranked, and using the trichrome-stained section the amount and quality of collagen in the area of the wound were evaluated. The results of these evaluations were shown in Table 2-1 (control group), Table 2-2 (test group-1), and Table 2-3 (test group-2).
Definitions for each score are as follows.
0=No re-epithelization. 1=Partial re-epithelization. (Wound surface is not completely covered by epithelial cells.) 2=Re-epithelization across the full surface of the wound, but the epithelium is not a stratified squamous epithelium with multiple strata (stratum basale, stratum spinosum, stratum granulosum). 3=Re-epithelization across the full surface of the wound with a stratified squamous epithelium and keratinization, but there is evidence of active remodeling in the form of apoptotic or necrotic cells or dyskeratosis, or multiple mitotic figures, or irregular thickness or irregular strata (hyperplasia). 4=Complete re-epithelization with a keratinized stratified squamous epithelium with remodeling and organization within normal limits. (The only alteration is lack of hair follicles and adenexia in the dermis.)
0=Decreased vascularity compared to normal dermis. 1=Dermal vascularity within normal limits. […] Increased prominence may be due to increased number, dilation (congestion or hyperemia), or increased size. 3=Mild increase in prominence of dermal or wound capillaries. 4=Moderate increase in prominence of dermal or wound capillaries. <Inflammation> Inflammation consisted of increased number of neutrophils and macrophages in the dermis and scar tissue beneath the epidermis. […] 0=No increase in inflammatory cells (within normal limits for dermis of nude mice). 1=Minimal increase in inflammatory cells. Inflammation tends to be multifocal, perivascular. 2=Mild increase in inflammatory cells. Inflammation tends to be multifocal, perivascular. 3=Moderate increase in inflammatory cells. 4=Marked increase in inflammatory cells.
0=Lack of fibroplasia and/or collagen in wound. 1=Minimal to mild fibroplasia in the granulation tissue of the wound. 2=Moderate fibroplasia and collagen throughout the wound. 3=Superficial portion of the wound has dense collagen similar to normal dermal collagen. 4=Dense collagen throughout the wound. There are relatively fewer fibroblasts and the collagen is slightly denser than normal dermis.
Depth of collagen (μm) beneath the epithelium in the wound was estimated at the thickest portion of the collagen using an ocular micrometer that was calibrated with an objective micrometer (×10).

[2] = system: skin wound model mice (1 cm×1 cm wound); assay: Skin wound model of mice: wound area and observation of the affected area; type: in vivo, NTaC:NIHS-Foxn1 <nu> type nude mice
Description: 30 NTaC:NIHS-Foxn1 type nude mice (female, weight ˜20 g) were used as experimental animals. The mice were housed in the condition of a temperature of 17 to 26° C., a relative humidity of 30 to 70%, a 12-hour light/dark cycle, minimum of ten fresh air changes/hour, and diet was provided once daily and the mice had access to water ad libitum.
Anesthesia was induced by placing the mice in a chamber filled with isoflurane at 2.5 to 4%, and maintained with isoflurane delivered through a nose cone at 0.5 to 2.5%.
All residual hair was removed from the upper right dorsum, and the operative area was cleaned with three alternating scrubs of povidone-iodine scrub and 70% alcohol. Once the alternating scrubs were complete, a final application of povidone-iodine scrub was applied and allowed to dry. The area was draped for aseptic surgery.
Forceps were used to pinch up a fold of skin (at what would become the lower right corner of the wound), and scissors were used to separate the skin and create a 1 cm×1 cm wound. Blood was soaked up with a sterile gauze pad.
(b-1) The centrifuge tube was placed into a cool water bath. The bath was sonicated for 30 min, and then the contents of the tube were vortexed for one minute. Air bubbles were then removed via centrifugation (3000 rpm, 1 min). Vortexing and centrifugation were repeated as necessary to remove all bubbles. The 1% PuraMatrix (trade mark) solution was prepared and administered to animals in test group-1.
(b-2) The 5 ng/μL hbFGF PBS solution (20 μL) was added to the sterile centrifuge tube previously containing 1 mL of 1% PuraMatrix (trade mark). The mixture was then vortexed to homogenize. The centrifuge tube was placed into the cool water bath and sonicated for 30 min, vortexed for 1 min, then centrifuged at room temperature (3000 rpm, 1 min) to remove air bubbles. Vortexing and centrifugation were repeated as necessary to remove all air bubbles. The PuraMatrix+hbFGF solution obtained was administered to animals in the test group-2.
The 30 skin wound model mice produced in (a) were divided into three groups of 10 mice, and treated according to the scheme in Table 1 immediately after the surgical procedure. The day when surgical procedure was performed (wound creation) was regarded as Day 0. Observation of wound area was performed at just before a treatment on Day 0 (FIG. 1), Day 7 (FIG. 2), Day 14 (FIG. 3), Day 21 (FIG. 4) and Day 28 (FIG. 5).
Baseline wound measurements were recorded prior to the application of the first dressing. Weekly measurements were obtained by removing the dressing of self-assembling hydropeptide gel (for the control group, a petroleum jelly impregnated gauze only) and exposing the wound site. A ruler was placed adjacent to the wound area and digital photographs were obtained, thereafter, the wound was re-dressed with the self-assembling hydropeptide gel (for the control group, a petroleum jelly impregnated gauze only). Wound area was calculated using ImageJ version 1.37 at the NIH website.

[3] = liquid when pH is not higher than 5.0; cited from earlier work
[4] = Day 28, compared to control group
[5] = rank score, Day 28, H&E-stained section, one value per mouse

Substance: Ac-(RADA)4-CONH2 [PuraMatrix]
- Collagen depth ([1]; Day 28, beneath the epithelium at thickest portion of collagen, one value per mouse): 550 μm (2×) and 250 μm (3×) and 470 μm and 500 μm (2×) and 540 μm and 200 μm
- ranking of epithelization and vascularization across groups ([1]; Day 28, compared across the three groups): little difference
- mice with an inflammation rank 0 [1, 4]: larger numbers of mice
- mice with dense collagen throughout the wound scar [1, 4]: larger numbers of mice
- typical state of wound area structure in pathological section ([1]; Day 28, photomicrograph, compared to control group (FIG. 8, FIG. 9)): there is dense collagen so that the dermis 2 is slightly more stained
- mice with rank scores 4, 1, 0, 4 (most advanced wound healing) ([1]; Day 28, no mice in control group): one
- Epithelization [1, 5]: 4 (5×) and 3 (5×)
- Inflammation [1, 5]: 1 (5×) and 0 (3×) and 2 (2×)
- Vascularization [1, 5]: 2 (6×) and 1 (4×)
- Collagen quality ([1]; rank score, Day 28, trichrome-stained section, one value per mouse): 3 (3×) and 4 (7×)
- wound area ([2]; Day 7, compared to control group (FIG. 2)): decreased drastically
- healing rate (ratio of the wound area to the area when wound created, FIG. 6) ([2]; Day 7 and Day 14, compared to control group, 100 μL to wound area): healing more quickly than those in the control group
- healing of the wound area ([2]; Day 14 (FIG. 3)): almost complete
- healing of the wounds ([2]; Day 21 (FIG. 4)): completely healed
- puckering of skin ([2]; Day 21, compared to control group (FIG. 4)): less puckering of skin
- scar ([2]; Day 28, observation before dissection): visible in all animals
- wound contraction noted ([2]; Day 28, observation before dissection, all animals in control group (FIG. 5)): 8/10
- overall wound healing effect ([2]; conclusion from Day 0-28 observations): significant healing effect visibly recognized
- pH at which the peptide solution forms a gel (self-assembles into nanofibers) [3]: higher than 5.0
